# Data taken from US4146719A, “Piperazinyl derivatives of quinoline carboxylic acids” (priority 1977, dated 1979).
# Read-outs that look alike come from different tables or passages of the source.
# Assays:
# [1] = system: Bacillus subtilis PCI 219; assay: Antibacterial activity in vitro, M.I.C., agar dilution streak method; type: cell-based; settings: Gram +; for MIC: Bacillus subtilis, PCI219, read-out: M.I.C.
# [2] = system: Staphylococcus aureus 209P; assay: as above; type: cell-based; settings: Gram +; for MIC: Staphylococcus aureus, 209P, read-out: M.I.C.
# Sta. aureus ATCC 14775 = assay: as above; type: cell-based, Staphylococcus aureus; settings: Gram +; for MIC: Staphylococcus aureus, ATCC14775, read-out: M.I.C.
# [3] = system: Streptococcus pyogenes IID 692; assay: as above; type: cell-based; settings: Gram +; for MIC: Streptococcus pyogenes, IID692, read-out: M.I.C.
# Str. pyogenes S-8 = assay: as above; type: cell-based, Streptococcus pyogenes; settings: Gram +; for MIC: Streptococcus pyogenes, S8, read-out: M.I.C.
# Str. faecalis IID 682 = assay: as above; type: cell-based; settings: Gram +
# [4] = system: Diplococcus pneumoniae IID 552; assay: as above; type: cell-based; settings: Gram +; for MIC: Streptococcus pneumoniae, IID552, read-out: M.I.C.
# [5] = system: Corynebacterium pyogenes IID 548; assay: as above; type: cell-based; settings: Gram +; for MIC: Corynebacterium pyogenes, IID548
# [6] = system: Mycobacterium phlei IFO 3142; assay: as above; type: cell-based; settings: Gram +; for MIC: Mycolicibacterium phlei, IFO3142, read-out: M.I.C.
# My. smegmatis IFO 3083 = assay: as above; type: cell-based; settings: Gram +; for MIC: Mycolicibacterium smegmatis, IFO3083, read-out: M.I.C.
# Escherichia coli NIHJ = assay: as above; type: cell-based; settings: for MIC: Escherichia coli
# E. coli ATCC 10536 = assay: as above; type: cell-based, Escherichia coli; settings: for MIC: Escherichia coli, ATCC10536
# [7] = system: Proteus vulgaris IFO 3167; assay: as above; type: cell-based; settings: Gram -; for MIC: Proteus vulgaris, IFO3167, read-out: M.I.C.
# Pr. vulgaris XK Denken = assay: as above; type: cell-based, Proteus vulgaris; settings: Gram -; for MIC: Proteus vulgaris, read-out: M.I.C.
# [8] = system: Klebsiella pneumoniae IFO 3512; assay: as above; type: cell-based; settings: for MIC: Klebsiella pneumoniae, IFO3512
# [9] = system: Salmonella enteritidis IID 604; assay: as above; type: cell-based; settings: Gram -; for MIC: Salmonella enterica, read-out: M.I.C.
# Shigella sonnei IID 969 = assay: as above; type: cell-based; settings: Gram -; for MIC: Shigella sonnei, IID969
# [10] = system: Haemophilus influenzae IID 986; assay: as above; type: cell-based; settings: Gram -; for MIC: Haemophilus influenzae, IID986, read-out: M.I.C.
# [11] = system: Neisseria perflava IID 856; assay: as above; type: cell-based; settings: for MIC: Neisseria perflava, IID856
# [12] = system: Pseudomonas aeruginosa V-1; assay: as above; type: cell-based; settings: Gram -; for MIC: Pseudomonas aeruginosa, V1, read-out: M.I.C.
# Ps. aeruginosa IFO 12689 = assay: as above; type: cell-based, Pseudomonas aeruginosa; settings: Gram -; for MIC: Pseudomonas aeruginosa, IFO12689, read-out: M.I.C.
# Ps. aeruginosa IID 1210 = assay: as above; type: cell-based, Pseudomonas aeruginosa; settings: Gram -; for MIC: Pseudomonas aeruginosa, IID1210, read-out: M.I.C.
# Ps. aeruginosa IID 1130 = assay: as above; type: cell-based, Pseudomonas aeruginosa; settings: Gram -; for MIC: Pseudomonas aeruginosa, IID1130, read-out: M.I.C.
# [13] = system: Pseudomonas aeruginosa IID 1210; assay: Preventive effect against systemic infection with Pseudomonas aeruginosa in mice; type: in vivo, Pseudomonas aeruginosa; mice (ddY, male); settings: Pseudomonas aeruginosa, challenge 3.5 × 10^4 cells/mouse; for ED50: twice (immediately and 6 hours after inoculation), read-out: ED50 (95% confidence limit); for ED90: twice, read-out: ED90
# Protocol: Systemic infection was produced by inoculating male mice (strain: ddY, 6 weeks old, body weight: 28-33g) in intraperitoneally with Pseudomonas aeruginosa IID 1210 suspended in 0.5 ml of Brain heart infusion broth (Eiken) containing 5% mucin. […] Each of these test materials was administered to the mice twice, immediately after and then 6 hours after the inoculation, and the therapeutic effect of each compounds was judged from the survival rate.
# (1) Miller L. C. and M. L. Tainter: Estimation of the ED50 and its error by means of logarithmic-probit graph paper Proc. Soc. Exp. Biol. Med. 57 261-264 (1944)
# (2) Litchfield J. T. and F. Wilcoxon: A simplified method of evaluating dose - effect J. Pharmacol. 92 99-113 (1948)
# [14] = system: gram-positive and gram-negative bacteria including Pseudomonas aeruginosa; assay: Antibacterial spectrum in vitro (summary in words); type: cell-based
# [15] = system: Escherichia coli NIHJ JC-2; assay: Preventive effect against ascending kidney infection in mice with Escherichia coli; type: in vivo, Escherichia coli; mice (ddY, female); settings: Escherichia coli, NIHJJC2, 48 h, oral, 3 hours after inoculation, challenge 3.2 × 10^7 cells/mouse
# Protocol: Ascending kidney infection was induced in female mice (strain: ddY, 6 weeks old, body weight: 22-26g), by instilling Escherlichia coli NIHJ JC-2 suspended in 0.04 ml of Tryptosoya broth (Nissan) into the urinary tract of mice anesthetized with sodium pentobarbital and by holding for 6 hours the mice in plastic tubes (diameter 25 mm) and clamping the outlet of urinary tract.
# Each of these test material was orally administered 3 hours after inoculation. Mice were sacrificed 48 hours after inoculation. Kidneys were removed aseptically and bisected, and the two halves were pressed and streaked on agar plate containing Desoxycholate medium (Nissan). The therapeutic effect of each compound was evaluated from the absence of growth on the agar surface after 20 hours of incubation at 37° C.
# [16] = system: Escherichia coli NIHJ JC-2; assay: Influence of rat bile on antibacterial activity; type: cell-based; settings: bile of rats
# Protocol: Nutrient agar was heated and melted. […] The diameter of the inhibition zone was measured.
# Escherichia coli = assay: Concentration ratio in serum to M.I.C. after oral administration of 50 mg/kg in rats; type: in vivo, Escherichia coli; rats; settings: rat, in vivo, po, 50 mg/kg
# [17] = Biliary excretion in rats after a single oral administration of 50 mg/kg; settings: rat, in vivo, po, 50 mg/kg
molecule,measurement,setting,value
CC1(C)S[C@@H]2[C@H](NC(=O)C(C(=O)O)c3ccccc3)C(=O)N2[C@H]1C(=O)O (some centres unmarked) [Carbenicillin],MIC,[1],0.39 µg/mL
same,MIC,[2],0.39 µg/mL
same,MIC,Sta. aureus ATCC 14775,6.25 µg/mL
same,MIC,[3],0.1 µg/mL
same,MIC,Str. pyogenes S-8,0.1 µg/mL
same,MIC,"Str. faecalis IID 682; Enterococcus faecalis, IID682",100 µg/mL
same,MIC,[4],0.39 µg/mL
same,MIC,[5],0.2 µg/mL
same,MIC,[6],> 200 µg/mL
same,MIC,My. smegmatis IFO 3083,6.25 µg/mL
same,MIC,Escherichia coli NIHJ,1.56 µg/mL
same,MIC,E. coli ATCC 10536,1.56 µg/mL
same,MIC,[7],6.25 µg/mL
same,MIC,Pr. vulgaris XK Denken,0.39 µg/mL
same,MIC,"[8]; Gram -, read-out: M.I.C.",> 200 µg/mL
same,MIC,[9],12.5 µg/mL
same,MIC,Shigella sonnei IID 969,1.56 µg/mL
same,MIC,[10],0.39 µg/mL
same,MIC,[11],1.56 µg/mL
same,MIC,[12],12.5 µg/mL
same,MIC,Ps. aeruginosa IFO 12689,100 µg/mL
same,MIC,Ps. aeruginosa IID 1210,100 µg/mL
same,MIC,Ps. aeruginosa IID 1130,200 µg/mL
same,ED50,"[13]; IID1210, sc, subcutaneous",800 mg/kg
same,ED90,"[13]; IID1210, subcutaneous",1430 mg/kg
CCn1cc(C(=O)O)c(=O)c2cnc(N3CCNCC3)nc21 [Pipemidic acid],MIC,[1],6.25 µg/mL
same,MIC,[2],25 µg/mL
same,MIC,Sta. aureus ATCC 14775,100 µg/mL
same,MIC,[3],> 100 µg/mL
same,MIC,Str. pyogenes S-8,> 100 µg/mL
same,MIC,[4],> 100 µg/mL
same,MIC,[5],100 µg/mL
same,MIC,[6],12.5 µg/mL
same,MIC,My. smegmatis IFO 3083,50 µg/mL
same,MIC,Escherichia coli NIHJ,1.56 µg/mL
same,MIC,E. coli ATCC 10536,1.56 µg/mL
same,MIC,[7],3.13 µg/mL
same,MIC,Pr. vulgaris XK Denken,6.25 µg/mL
same,MIC,[8],1.56 µg/mL
same,MIC,[9],12.5 µg/mL
same,MIC,Shigella sonnei IID 969,1.56 µg/mL
same,MIC,[10],3.13 µg/mL
same,MIC,[11],1.56 µg/mL
same,MIC,[12],12.5 µg/mL
same,MIC,Ps. aeruginosa IFO 12689,25 µg/mL
same,MIC,Ps. aeruginosa IID 1210,50 µg/mL
same,MIC,Ps. aeruginosa IID 1130,25 µg/mL
same,antibacterial activity (in words),[14],inactive on many strains of gram-positive bacteria and many Pseudomonas aeruginosa strains
same,ED50,"[13]; IID1210, oral",400 mg/kg
same,ED90,"[13]; IID1210, oral",1120 mg/kg
same,ED50,[15]; read-out: ED50 (95% confidence limit),74 mg/kg
same,ED90,[15]; read-out: ED90,235 mg/kg
same,antibacterial activity in presence of bile (in words),[16],not influenced by bile of rats
same,serum concentration / M.I.C. ratio (in words),Escherichia coli,smaller than that of the compound (II)
same,time for which serum levels were maintained,Escherichia coli,≤ 2 h
same,concentration at 3 h,[17],27400 ± 2600 ng/mL
same,concentration at 6 h,[17],22600 ± 1700 ng/mL
same,concentration at 24 h,[17],10200 ± 1200 ng/mL
same,concentration at 27 h,[17],< 2000 ng/mL
same,dose excreted at 3 h,[17],0.6 ± 0.07%
same,dose excreted at 6 h,[17],1.01 ± 0.1%
same,dose excreted at 24 h,[17],1.97 ± 0.09%
same,dose excreted at 27 h,[17],1.97 ± 0.09%
Gentamicin,M.I.C.,[1],0.10 µg/mL
same,M.I.C.,[2],0.10 µg/mL
same,M.I.C.,Sta. aureus ATCC 14775,0.10 µg/mL
same,M.I.C.,[3],6.25 µg/mL
same,M.I.C.,Str. pyogenes S-8,6.25 µg/mL
same,M.I.C.,Str. faecalis IID 682,50 µg/mL
same,M.I.C.,[4],12.5 µg/mL
same,M.I.C.,[5],0.78 µg/mL
same,M.I.C.,[6],6.25 µg/mL
same,M.I.C.,My. smegmatis IFO 3083,0.20 µg/mL
same,M.I.C.,Escherichia coli NIHJ; Gram -,0.39 µg/mL
same,M.I.C.,E. coli ATCC 10536; Gram -,0.39 µg/mL
same,M.I.C.,[7],0.20 µg/mL
same,M.I.C.,Pr. vulgaris XK Denken,0.10 µg/mL
same,M.I.C.,[8]; Gram -,0.20 µg/mL
same,M.I.C.,[9],1.56 µg/mL
same,M.I.C.,Shigella sonnei IID 969,0.78 µg/mL
same,M.I.C.,[10],1.56 µg/mL
same,M.I.C.,[11]; Gram -,0.78 µg/mL
same,M.I.C.,[12],0.78 µg/mL
same,M.I.C.,Ps. aeruginosa IFO 12689,12.5 µg/mL
same,M.I.C.,Ps. aeruginosa IID 1210,12.5 µg/mL
same,M.I.C.,Ps. aeruginosa IID 1130,3.13 µg/mL
